Results as given in patent US7803793B2, “Heterocyclic derived metalloprotease inhibitors” (Janssen Pharmaceutica NV, priority 2006, dated 2010).
Where two headings read alike, the source gives them in different places.

Key:
MMP-2 = biological target: T1, MMP-2 (Homo sapiens, UniProt P08253); experiment: MMP enzymatic assay (Trupoint peptide), MMP-2; format: biochemical
T1 construct: Human MMP-2 full length (aa 1-660)
T1 sequence (P08253 30-660): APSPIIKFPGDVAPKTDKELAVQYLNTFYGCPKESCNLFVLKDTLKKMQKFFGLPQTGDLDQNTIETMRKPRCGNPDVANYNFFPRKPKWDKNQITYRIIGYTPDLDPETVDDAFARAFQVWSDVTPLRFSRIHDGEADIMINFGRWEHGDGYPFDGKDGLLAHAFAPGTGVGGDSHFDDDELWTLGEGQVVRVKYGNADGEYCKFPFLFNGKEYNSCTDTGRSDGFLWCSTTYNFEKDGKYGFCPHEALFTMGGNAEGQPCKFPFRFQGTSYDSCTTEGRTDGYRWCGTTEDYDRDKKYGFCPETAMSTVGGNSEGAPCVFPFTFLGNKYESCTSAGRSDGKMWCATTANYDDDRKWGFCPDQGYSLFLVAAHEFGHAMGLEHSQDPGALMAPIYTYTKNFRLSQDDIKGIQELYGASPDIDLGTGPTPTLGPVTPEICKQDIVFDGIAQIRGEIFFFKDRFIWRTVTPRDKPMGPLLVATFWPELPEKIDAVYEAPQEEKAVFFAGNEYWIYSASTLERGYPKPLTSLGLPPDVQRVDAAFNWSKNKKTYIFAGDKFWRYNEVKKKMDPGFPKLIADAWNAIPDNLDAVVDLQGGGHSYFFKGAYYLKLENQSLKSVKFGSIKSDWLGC
Protocol: [formula] • 1) Prepare appropriate 1×MMP assay buffer from 10× stock. […] Need to prepare a 2.5× concentration stock (2.5 μM) to achieve this concentration in 50 μl. Dilute compound to 2.5 mM in 100% DMSO (a 1:40 dilution), then dilute the 2.5 mM compound to 2.5 μM (1:1000) into 1× assay buffer. Make 1 ml 2.5 μM compound in assay buffer. • 4) Fill the rows B through P of a 384-well plate with assay buffer+0.1% DMSO. • 5) Add 30 ul of the 2.5 μM compound in assay buffer to the top row of the plate, doing each compound in triplicate. The plate setup should be as follows, using GM6001 as plate reference compound:
• 6) Serially dilute 10 μl down the plate to achieve 1:3 dilutions in subsequent wells. After each dilution, change pipette tips to avoid compound carryover. Discard the remaining 10 μl after diluting into the final row. • 7) Prepare enzyme dilutions at 2.5× of final desired concentration (see below). Will need 10 ml enzyme solution per plate. Add enzyme to plate, 20 μl per well. Incubate 1 hr.
• 8) Dilute the 500 μM Trupoint peptide 1:1000 into assay buffer to achieve a 5× working stock of 500 nM. Prepare 5 ml total per plate. Add 10 ul of substrate to each well to achieve a final concentration of 100 nM in well. Also prepare background subtraction wells by adding 10 μl 5× substrate to 40 μl assay buffer per well, typically do ˜32 wells. • 9) Incubate assay at room temperature for 15 min. Read in plate reader.
(§1) Analysis Specifications • Calculate average background value from substrate/assay buffer wells • Subtract this from entire plate • Calculate average of DMSO wells for each enzyme. This is the positive control, 100% value. • For each well, calculate percent of control by dividing well value by the average DMSO value obtained above. • Paste percent of control values into Graphpad Prism 4.0.

MMP-9 = biological target: T2, MMP-9 (Homo sapiens, UniProt P14780); experiment: MMP enzymatic assay (Trupoint peptide), MMP-9; format: biochemical
T2 construct: Human MMP-9 catalytic domain (aa 107-446)
T2 sequence (P14780 107-446): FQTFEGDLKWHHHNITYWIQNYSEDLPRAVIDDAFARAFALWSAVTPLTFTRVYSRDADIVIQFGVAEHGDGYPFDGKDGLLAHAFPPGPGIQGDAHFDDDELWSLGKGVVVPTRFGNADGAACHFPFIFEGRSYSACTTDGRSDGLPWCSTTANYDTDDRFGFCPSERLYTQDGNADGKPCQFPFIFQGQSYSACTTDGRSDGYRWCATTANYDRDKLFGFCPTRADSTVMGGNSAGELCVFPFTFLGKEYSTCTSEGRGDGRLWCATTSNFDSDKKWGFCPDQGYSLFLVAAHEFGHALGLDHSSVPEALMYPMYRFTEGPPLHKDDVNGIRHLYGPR
Protocol: [formula] • 1) Prepare appropriate 1×MMP assay buffer from 10× stock. […] The plate setup should be as follows, using GM6001 as plate reference compound:
• 6) Serially dilute 10 μl down the plate to achieve 1:3 dilutions in subsequent wells. After each dilution, change pipette tips to avoid compound carryover. […] Will need 10 ml enzyme solution per plate. Add enzyme to plate, 20 μl per well. Incubate 1 hr.
Prepare 5 ml total per plate. Add 10 ul of substrate to each well to achieve a final concentration of 100 nM in well. […] Read in plate reader.
as §1

Row | Compound | IC50 (MMP-2) [nM] | IC50 (MMP-9) [nM] | IC50 (MMP-2; read-out: MMP-2 nM IC50) [nM]
1 | O=C1[C@H](NS(=O)(=O)c2ccc(Oc3ccc(C(F)(F)F)cc3)cc2)CCCN1O [Compound 58, (R)—N-(1-Hydroxy-2-oxo-piperidin-3-yl)-4-(4-trifluoromethyl-phenoxy)-benzenesulfonamide] | 46.7 | 743 | 
2 | N#Cc1ccc(-c2ccc(S(=O)(=O)C3CCCCN(O)C3=O)cc2)cc1 (stereo not drawn) [Compound 84, 4′-(1-Hydroxy-2-oxo-azepane-3-sulfonyl)-biphenyl-4-carbonitrile] | > 1000 | > 1000 | 
3 | O=C1C(S(=O)(=O)c2ccc(Br)cc2)CCCCN1O (stereo not drawn) [Compound 81, 3-(4-Bromo-benzenesulfonyl)-1-hydroxy-azepan-2-one] | > 1000 | > 1000 | 
4 | O=C1[C@H](NS(=O)(=O)c2ccc(-c3ccc(Cl)cc3)cc2)CC=CCN1O [Compound 2, 4′-Chloro-biphenyl-4-sulfonic acid (1-hydroxy-2-oxo-2,3,4,7-tetrahydro-1H-azepin-3-(R)-yl)-amide] | 68.6 | 1140 | 
5 | CN(c1cccn(O)c1=O)S(=O)(=O)c1ccc(Oc2ccc(OC(F)(F)F)cc2)cc1 [Compound 39, N-(1-Hydroxy-2-oxo-1,2-dihydro-pyridin-3-yl)-N-methyl-4-(4-trifluoro-methoxy-phenoxy)-benzenesulfonamide] |  | 1.85 | 5.75
6 | CS(=O)(=O)N(Cc1cccn(O)c1=O)c1ccc(Oc2ccc(Cl)cc2)cc1 [Compound 44, N-[4-(4-Chloro-phenoxy)-phenyl]-N-(1-hydroxy-2-oxo-1,2-dihydro-pyridin-3-ylmethyl)-methanesulfonamide] | 406 | 126 | 
7 | Cc1ccc(Oc2ccc(N(Cc3cc(-c4ccccc4)cn(O)c3=O)S(C)(=O)=O)cc2)cc1 [Compound 52, N-(1-Hydroxy-2-oxo-5-phenyl-1,2-dihydro-pyridin-3-ylmethyl)-N-(4-p-tolyloxy-phenyl)-methanesulfonamide] | 914 | 317 | 
8 | O=C1C(S(=O)(=O)c2ccc(Oc3ccc(OC(F)(F)F)cc3)cc2)CCCCN1O (stereo not drawn) [Compound 71, 1-Hydroxy-3-[4-(4-trifluoromethoxy-phenoxy)-benzenesulfonyl]-azepan-2-one] | 110 | 44.4 | 
9 | Cc1ccc(Oc2ccc(N(Cc3c(C)ccn(O)c3=O)S(C)(=O)=O)cc2)cc1 [Compound 48, N-(1-Hydroxy-4-methyl-2-oxo-1,2-dihydro-pyridin-3-ylmethyl)-N-(4-p-tolyloxy-phenyl)-methanesulfonamide] | > 1000 | 457 | 
10 | 1-Hydroxy-3-(4′-trifluoromethoxy-biphenyl-4-sulfonyl)-azepan-2-one [Compound 85] |  | > 1000 | > 1000
11 | CCCCOc1ccc(N(Cc2cccn(O)c2=O)S(C)(=O)=O)cc1 [Compound 46, N-(4-Butoxy-phenyl)-N-(1-hydroxy-2-oxo-1,2-dihydro-pyridin-3-ylmethyl)-methanesulfonamide] | > 1000 | > 1000 | 
12 | CC(C)CN(c1cccn(O)c1=O)S(=O)(=O)c1ccc(Oc2ccccc2)cc1 [Compound 24, N-(1-Hydroxy-2-oxo-1,2-dihydro-pyridin-3-yl)-N-isobutyl-4-phenoxy-benzenesulfonamide] | 41 | 57.5 | 
13 | Cc1ccc(Oc2ccc(S(=O)(=O)N(CCN3CCOCC3)c3cccn(O)c3=O)cc2)cc1 [Compound 34, N-(1-Hydroxy-2-oxo-1,2-dihydro-pyridin-3-yl)-N-(2-morpholin-4-yl-ethyl)-4-p-tolyloxy-benzenesulfonamide] | 3.5 | 2.41 | 
14 | O=C1[C@H](NS(=O)(=O)c2ccc(Oc3ncc(C(F)(F)F)cc3Cl)cc2)CC=CCN1O [Compound 7, 4-(3-Chloro-5-trifluoromethyl-pyridin-2-yloxy)-N-(1-hydroxy-2-oxo-2,3,4,7-tetrahydro-1H-azepin-3-(R)-yl)-benzenesulfonamide] | > 1000 | > 1000 | 
15 | CN(c1cccn(O)c1=O)S(=O)(=O)c1ccc(Oc2ccc(C(F)(F)F)cc2)cc1 [Compound 30, N-(1-Hydroxy-2-oxo-1,2-dihydro-pyridin-3-yl)-N-methyl-4-(4-trifluoromethyl-phenoxy)-benzenesulfonamide] |  | 32.7 | 

More lines, now with the values ahead:

Row | IC50 (MMP-2) [nM] | IC50 (MMP-9) [nM] | IC50 (MMP-2; read-out: MMP-2 nM IC50) [nM] | Compound
16 | > 1000 | 486 |  | Cc1ccc(Oc2ccc(N(Cc3cccn(O)c3=S)S(C)(=O)=O)cc2)cc1 [Compound 47, N-(1-Hydroxy-2-thioxo-1,2-dihydro-pyridin-3-ylmethyl)-N-(4-p-tolyloxy-phenyl)-methanesulfonamide]
17 | 1.25 | 0.89 |  | CC1CN(CC2=CC[C@@H](NS(=O)(=O)c3ccc(Oc4ccc(Cl)cc4)cc3)C(=O)N(O)C2)CC(C)O1 (stereo partly drawn) [Compound 21, (R)-4-(4-Chloro-phenoxy)-N-[6-(2,6-dimethyl-morpholin-4-ylmethyl)-1-hydroxy-2-oxo-2,3,4,7-tetrahydro-1H-azepin-3-yl]-benzenesulfonamide]
18 | 0.39 | 0.77 |  | O=C1[C@H](NS(=O)(=O)c2ccc(Oc3ccc(Cl)cc3)cc2)CC=C(CN2CCOCC2)CN1O [Compound 19, 4-(4-Chloro-phenoxy)-N-(1-hydroxy-6-morpholin-4-ylmethyl-2-oxo-2,3,4,7-tetrahydro-1H-azepin-3-(R)-yl)-benzenesulfonamide]
19 | 0.55 | 0.21 |  | O=C1[C@H](N(CCN2CCCCC2)S(=O)(=O)c2ccc(Oc3ccc(Cl)cc3)cc2)CC=CCN1O [Compound 13, 4-(4-Chloro-phenoxy)-N-(1-hydroxy-2-oxo-2,3,4,7-tetrahydro-1H-azepin-3-(R)-yl)-N-(2-piperidin-1-yl-ethyl)-benzenesulfonamide]
20 |  | 56.1 | 84.5 | COc1ccc(Oc2ccc(S(=O)(=O)Cn3cccc(O)c3=O)cc2)cc1 [Compound 66, 3-Hydroxy-1-[4-(4-methoxy-phenoxy)-benzenesulfonylmethyl]-1H-pyridin-2-one]
21 | > 1000 | > 1000 |  | N#Cc1ccc2[nH]c(-c3ccc(S(=O)(=O)C4CCCCN(O)C4=O)cc3)nc2c1 (stereo not drawn) [Compound 76, 2-[4-(1-Hydroxy-2-oxo-azepane-3-sulfonyl)-phenyl]-1H-benzimidazole-5-carbonitrile]
22 |  |  | 66.2 | Cc1ccn(O)c(=O)c1N(C)S(=O)(=O)c1ccc(Oc2ccc(Cl)cc2)cc1 [Compound 31, 4-(4-Chloro-phenoxy)-N-(1-hydroxy-4-methyl-2-oxo-1,2-dihydro-pyridin-3-yl)-N-methyl-benzenesulfonamide]
23 | 13.6 | 4.91 |  | O=c1c(O)cccn1CS(=O)(=O)c1ccc(Oc2ccc(OC(F)(F)F)cc2)cc1 [Compound 62, 3-Hydroxy-1-[4-(4-trifluoromethoxy-phenoxy)-benzenesulfonylmethyl]-1H-pyridin-2-one]
24 | > 10000 | > 10000 |  | Cc1ccc(C#Cc2ccc(N(Cc3cccn(O)c3=S)S(C)(=O)=O)cc2)cc1 [Compound 56, N-(1-Hydroxy-2-thioxo-1,2-dihydro-pyridin-3-ylmethyl)-N-(4-p-tolylethynyl-phenyl)-methanesulfonamide]
25 |  |  | 662 | CN(c1cc(Br)cn(O)c1=O)S(=O)(=O)c1ccc(Oc2ccc(Cl)cc2)cc1 [Compound 32, N-(5-Bromo-1-hydroxy-2-oxo-1,2-dihydro-pyridin-3-yl)-4-(4-chloro-phenoxy)-N-methyl-benzenesulfonamide]
26 |  | 57.9 |  | O=C1[C@H](NS(=O)(=O)c2ccc(Oc3ccc(Cl)cc3)cc2)CCCN1O [Compound 57, (R)-4-(4-Chloro-phenoxy)-N-(1-hydroxy-2-oxo-piperidin-3-yl)-benzene-sulfonamide]
